Source: US20110003777A1, “Methods of Treatment Employing Prolonged Continuous Infusion of Belinostat” (TOPOTARGET A/S, priority 2008, published 2011)

Assays:
[1] = system: patients; details: 30 minute intravenous bolus with standard dose carboplatin or paclitaxel (Sinha et al., 2007); cited from earlier work
[2] = water at physiological pH; cited from earlier work
[3] = reported; cited from earlier work
[4] = system: A2780: human ovarian cancer; assay: Clonogenic assay with increasing time of exposure, A2780; format: cell-based
Description: (§1) The data are summarised in FIG. 1, which is a graph of EC50 (μM), as determined using the clonogenic assay described above, as a function of exposure time (hours) for the four cells lines, P388 (diamonds), A2780 (circles), NYH (triangles), and L1210 (squares).

[5] = system: patients with various solid-tumours; details: intravenous bolus over 30 minutes, 150 to 1200 mg/m^2, solid tumours (Steele et al., 2008); cited from earlier work
[6] = system: NYH: human small cell lung cancer; assay: Clonogenic assay with increasing time of exposure, NYH; format: cell-based
Description: as §1

[7] = system: L1210: mouse lymphocytic leukemia; assay: Clonogenic assay with increasing time of exposure, L1210; format: cell-based
Description: as §1

[8] = system: P388: mouse lymphocytic leukemia; assay: Clonogenic assay with increasing time of exposure, P388; format: cell-based
Description: as §1

[9] = system: human patient with AML (acute myeloid leukemia); assay: Continuous intravenous infusion in a human subject with AML; format: in vivo; details: for Blasts (absolute) / WBC / Platelets: peripheral blood
Description: The patient was a person with AML (acute myeloid leukemia). The patient had arterial hypertension since 1986, hypothyroidism since 1997 (treated with levothyroxin), anorexia, an enlarged spleen, night sweats since 2007, allergic exanthema since January 2008, and conjunctival hemorrhage from February 2007. AML was first diagnosed in December 2006. Prior treatment included four courses of decitabine from July 2007 to November 2007.

[10] = Day 15, before starting the 2nd cycle

For `O=C(/C=C/c1cccc(S(=O)(=O)Nc2ccccc2)c1)NO` [Belinostat™, (E)-N-hydroxy-3-(3-phenylsulfamoyl-phenyl)-acrylamide], the maximum tolerated dose [1] is given as 1000 mg/m^2/d, the solubility in water [2] is given as “sparingly soluble” and the plasma half-life [3] is given as 47 to 86 min. The EC50 values ([4]; A2780, longer incubation (≧16 hours)) was “markedly reduced”, the “activity in clonogenic assay” value ([4]; A2780, short incubation times) was “weak activity” and the maximum tolerated dose [5] was 1000 mg/m^2. For the same compound, the EC50 values ([6]; longer incubation (≧16 hours)) was “markedly reduced”, the “activity in clonogenic assay” value ([6]; short incubation times) was “weak activity” and the EC50 values ([7]; L1210, longer incubation (≧16 hours)) was “markedly reduced”. The “activity in clonogenic assay” value ([7]; L1210, short incubation times) was “weak activity”, the EC50 values ([8]; P388, longer incubation (≧16 hours)) was “markedly reduced” and the “activity in clonogenic assay” value ([8]; P388, short incubation times) was “weak activity”. For the same compound, the “tolerability of first infusion” value ([9]; 800 mg/m^2/d continuous i.v. infusion, first cycle) was “tolerated well”, the “time of infusion at interruption due to fever (39° C.), dyspnea, and cough” value ([9]; 800 mg/m^2/d, first cycle, planned 48 hours) was 37 h and the “tolerability of second cycle” value ([9]; 800 mg/m^2/d, full 48 hour cycle on Day 15 and Day 16) was “no reports of serious adverse events”. The “Platelet counts following second cycle” value ([9]; after second 48 hour cycle) was “moderately depressed”, the “tolerability and efficacy of continuous infusion” value ([9]; human, continuous infusion) was “feasible, well tolerated and efficacious” and the “Blasts (absolute)” value ([9]; 24 h, pre-treatment 2.4) was 5e+08 L⁻¹. The WBC ([9]; 24 h, pre-treatment 3.8) was 1.3e+09 L⁻¹, the “Blasts (absolute)” value ([9]; 48 h, pre-treatment 2.4) was 2e+08 L⁻¹ and the WBC ([9]; 48 h, pre-treatment 3.8) was 6e+08 L⁻¹. The “Blasts (absolute)” value ([9]; Day 5) was 1.6e+09 L⁻¹, the Platelets ([9]; Day 5) was 8e+10 L⁻¹ and the WBC ([9]; Day 5) was 2.8e+09 L⁻¹. The “Blasts (absolute)” value ([9]; Day 8) was 2e+09 L⁻¹, the Platelets ([9]; Day 8) was 3.9e+10 L⁻¹ and the WBC ([9]; Day 8) was 4.2e+09 L⁻¹. The “Blasts (absolute)” value [9, 10] was 1.03e+10 L⁻¹, the Platelets [9, 10] was 7.3e+10 L⁻¹ and the WBC [9, 10] was 1.21e+10 L⁻¹. The “Blasts (absolute)” value ([9]; Day 19 (after 2nd cycle)) was 3.8e+09 L⁻¹, the Platelets ([9]; Day 19 (after 2nd cycle)) was 4.2e+10 L⁻¹ and the WBC ([9]; Day 19 (after 2nd cycle)) was 4.9e+09 L⁻¹. For the same compound, the “Blasts (absolute)” value ([9]; Day 22) was 5.6e+09 L⁻¹, the Platelets ([9]; Day 22) was 3.3e+10 L⁻¹ and the WBC ([9]; Day 22) was 7.4e+09 L⁻¹. The “Blasts (absolute)” value ([9]; Day 26) was 1.26e+10 L⁻¹, the Platelets ([9]; Day 26) was 3.4e+10 L⁻¹ and the WBC ([9]; Day 26) was 1.57e+10 L⁻¹.
